The structures appear in SMILES notation. Where two headings read alike, the source gives them in different places.

The subject of test [1] is Lepidium sativum L. roots. The settings on record: 24 h incubation, mean(±SD), n = 3.
The subject of test [2] is Lepidium sativum L. seeds. The settings on record: 24 h incubation, mean(±SD), n = 3.
The mark [3] stands for this setting: 0.01% (w/w) compound in the medium.
Where [4] appears, read: 0.03% (w/w) compound in the medium.
Setting [5] is: 0.05% (w/w) compound in the medium.
Where [6] appears, read: 0.10% (w/w) compound in the medium.
The mark [7] stands for this setting: 0.30% (w/w) compound in the medium.
Where [8] appears, read: 0.50% (w/w) compound in the medium.
[9] abbreviates: 1.00% (w/w) compound in the medium.
[10] abbreviates: 2.00% (w/w) compound in the medium.
[11] abbreviates: 3.00% (w/w) compound in the medium.
The mark [12] stands for this setting: 4.00% (w/w) compound in the medium.
The mark [13] stands for this setting: 5.00% (w/w) compound in the medium.

Consider `N[C@@H](CC(=O)O)C(=O)O.OCCN(CCO)CCO.OCCN(CCO)CCO` [[TEA]2[Asp]], for which the “Inhibition of the root growth in pregerminated Lepidium sativum seeds (IRG, %)” value (shortened to “Inhibition of the root growth … (IRG, %)”) in test [1] (setting [3]) is recorded as 7.7(±1.9) %; in test [1] (setting [4]) it was 8.6(±2.1) %; in test [1] (setting [5]), 11.6(±1.9) %; in test [1] (setting [6]), 29.6(±2.0) %; in test [1] (setting [7]) it was 32.6(±1.5) %; in test [1] (setting [8]), 36.6(±1.6) %. The “Inhibition of the root growth … (IRG, %)” value in test [1] (setting [9]) is recorded as 40.7(±1.2) %; in test [1] (setting [10]) it was 65.4(±0.7) %; in test [1] (setting [11]), 76.7(±0.7) %; in test [1] (setting [12]), 82.2(±0.6) %; in test [1] (setting [13]), 86.2(±0.5) %. The “Inhibition of the Lepidium sativum seeds germination (ISG, %)” value (“Inhibition … (ISG, %)” for short) in test [2] (setting [3]) is on record as 1.8(±0.1) %; in test [2] (setting [4]), 3.6(±1.3) %; in test [2] (setting [5]) it was 7.3(±0.8) %; in test [2] (setting [6]), 9.1(±0.5) %; in test [2] (setting [7]), 12.7(±0.8) %; in test [2] (setting [8]) it was 16.4(±1.3) %. In addition, the “Inhibition … (ISG, %)” value in test [2] (setting [9]) is 18.2(±0.8) %; in test [2] (setting [10]), 19.1(±1.3) %; in test [2] (setting [11]), 20.0(±0.5) %; in test [2] (setting [12]), 30.9(±0.9) %; in test [2] (setting [13]) it was 50.9(±0.8) %.

For `CCC(C)C(N)C(=O)O.OCCN(CCO)CCO` [[TEA][Ile]], the “Inhibition of the root growth … (IRG, %)” value in test [1] (setting [3]) was 2.9(±1.7) %; in test [1] (setting [4]) it was 27.8(±1.4) %; in test [1] (setting [5]), 31.4(±1.9) %; in test [1] (setting [6]), 35.1(±1.5) %; in test [1] (setting [7]), 34.6(±1.6) %; in test [1] (setting [8]), 36.9(±1.6) %. Further, the “Inhibition of the root growth … (IRG, %)” value in test [1] (setting [9]) is given as 56.9(±1.2) %; in test [1] (setting [10]), 70.9(±1.0) %; in test [1] (setting [11]), 72.5(±0.7) %; in test [1] (setting [12]), 77.5(±0.6) %; in test [1] (setting [13]), 80.4(±0.3) %. Besides, the “Inhibition … (ISG, %)” value in test [2] (setting [3]) is 0.0(±1.9) %; in test [2] (setting [4]) it was 0.0(±1.4) %; in test [2] (setting [5]), 0.0(±0.8) %; in test [2] (setting [6]), 0.0(±0.5) %; in test [2] (setting [7]), 3.6(±2.2) %; in test [2] (setting [8]) it was 5.4(±0.5) %. The “Inhibition … (ISG, %)” value was 17.9(±2.6) % in test [2] (setting [9]); 23.2(±0.9) % in test [2] (setting [10]); 26.8(±0,9) % in test [2] (setting [11]); 39.3(±2.1) % in test [2] (setting [12]); 80.4(±1.3) % in test [2] (setting [13]).

Consider `N[C@@H](Cc1c[nH]c2ccccc12)C(=O)O.OCCN(CCO)CCO` [[TEA][Trp]], for which the “Inhibition of the root growth … (IRG, %)” value is on record as 38.1% in test [1] (setting [3]); 41.1(±1.2) % in test [1] (setting [4]); 48.8(±1.0) % in test [1] (setting [5]); 51.9(±1.0) % in test [1] (setting [6]); 53.3(±0.4) % in test [1] (setting [7]); 54.7(±1.0) % in test [1] (setting [8]). The “Inhibition of the root growth … (IRG, %)” value in test [1] (setting [9]) is 57.6(±0.8) %; in test [1] (setting [10]), 69.0(±0.8) %; in test [1] (setting [11]) it was 76.0(±0.7) %; in test [1] (setting [12]), 88.8(±0.6) %; in test [1] (setting [13]), 95.0(±0.4) %. In addition, the “Inhibition … (ISG, %)” value is reported as 0.0(±0.0) % in test [2] (setting [3]); 1.9(±0.5) % in test [2] (setting [4]); 3.7(±1.3) % in test [2] (setting [5]); 12.0(±0.8) % in test [2] (setting [6]); 16.7(±2.2) % in test [2] (setting [7]); 18.5(±1.8) % in test [2] (setting [8]). Besides, the “Inhibition … (ISG, %)” value in test [2] (setting [9]) was 28.7(±1.3) %; in test [2] (setting [10]), 38.9(±1.6) %; in test [2] (setting [11]), 53.7%; in test [2] (setting [12]) it was 61.1(±1.4) %; in test [2] (setting [13]), 83.3(±0.8) %.

Regarding `NC(CCC(=O)O)C(=O)O.OCCN(CCO)CCO.OCCN(CCO)CCO` (stereo not drawn) [[TEA]2[Glu]], the “Inhibition of the root growth … (IRG, %)” value is listed as 10.0(±2.9% in test [1] (setting [3]); 18.1(±2.7) % in test [1] (setting [4]); 21.3(±2.7) % in test [1] (setting [5]); 44.4(±2.2) % in test [1] (setting [8]); 51.5(±2.1) % in test [1] (setting [9]); 68.2(±1.3) % in test [1] (setting [10]). The “Inhibition of the root growth … (IRG, %)” value in test [1] (setting [11]) is given as 78.5(±0.6) %; in test [1] (setting [12]), 87.0(±0.4) %; in test [1] (setting [13]), 90.5(±0.7) %. Further, the “Inhibition … (ISG, %)” value is reported as 0.0(±0.0) % in test [2] (setting [3]); 0.0(±0.0) % in test [2] (setting [4]); 0.0(±0.0) % in test [2] (setting [5]); 3.7(±0.9) % in test [2] (setting [6]); 5.6(±0.9) % in test [2] (setting [7]); 7.4(±0.9) % in test [2] (setting [8]). Also, the “Inhibition … (ISG, %)” value in test [2] (setting [9]) is given as 14.8(±2.5) %; in test [2] (setting [10]), 22.2(±2.2) %; in test [2] (setting [11]) it was 29.6(±1.7) %; in test [2] (setting [12]) it was 37.0(±0.5) %; in test [2] (setting [13]) it was 63.0(±0.5) %.

For the compound `NC(=O)C[C@H](N)C(=O)O.OCCN(CCO)CCO` [[TEA][Asn]], the “Inhibition of the root growth … (IRG, %)” value in test [1] (setting [3]) is given as 4.5(±1.6) %; in test [1] (setting [4]), 11.6(±1.6) %; in test [1] (setting [5]), 16.0(±1.6) %; in test [1] (setting [6]), 32.5(±1.7) %; in test [1] (setting [7]), 34.9%; in test [1] (setting [8]) it was 42.7(±1.5) %. Also, the “Inhibition of the root growth … (IRG, %)” value in test [1] (setting [9]) is on record as 58.9(±1.1) %; in test [1] (setting [10]), 76.9(±1.0) %; in test [1] (setting [11]) it was 81.5(±0.9) %; in test [1] (setting [12]) it was 85(±0.8) %; in test [1] (setting [13]) it was 88.2(±0.7) %. In addition, the “Inhibition … (ISG, %)” value in test [2] (setting [3]) is 5.6(±2.9) %; in test [2] (setting [4]), 6.5(±1.3) %; in test [2] (setting [5]), 7.4(±0.5) %; in test [2] (setting [6]), 9.3(±1.3) %; in test [2] (setting [7]), 12.0(±0.9) %; in test [2] (setting [8]), 14.8(±2.4) %. Also, the “Inhibition … (ISG, %)” value in test [2] (setting [9]) is on record as 20.4(±2.6) %; in test [2] (setting [10]) it was 33.3(±2.9) %; in test [2] (setting [11]), 46.3(±0.9) %; in test [2] (setting [12]), 67.6(±2.9) %; in test [2] (setting [13]), 88.9(±1.4) %.

These data come from article PMC12029836, “Phytotoxicity, Cytotoxicity, and Antimicrobial Activity of Triethanolammonium Amino Acids Salts” (Molecules, 2025).
